Legend:
[1] = LC/MS quantification of felbamate and metabolites in patient urine; format: in vivo, human; conditions: highest value; patient with total daily dose of 6.0 grams of felbamate
Method: Preparation of Patient Urine Samples.
Urine samples were obtained from patient volunteers undergoing felbamate therapy for control of epileptic seizures and under the care of physicians at either the University of Virginia (Charlottesville, Va.) or the EpiCare Center (Memphis, Tenn.). Urine samples were diluted four fold with distilled water (this was done prior to overnight shipment for samples requiring shipping) and placed in an orbital shaking water bath for ˜20 min at 37° C. to insure that all of the analytes were in solution. 500 μL of this diluted sample were removed and added to 100 μL of a mixture of the four deuterated internal standards. […] After mixing, 200 μL were removed and added to 20 μL of 20% H0Ac. […] This fraction was then analyzed by LC/MS without further manipulation.
LC/MS Analysis of Urine Samples for Metabolite Quantification.
LC/MS analysis was performed using a Waters 2690 HPLC equipped with an autosampler and a Waters 486 tunable absorbance detector. […] The post-column flow was directed through a Waters 486 tunable absorbance detector (10 μL flow cell, λ=214 nm) which was used for qualitative assessment of the sample and not for quantitation. […]
Quantification was achieved by integration of the peaks from the mass chromatogram for each analyte using software (Navigator 1.1) provided with the LCQ. […]

[2] = system: painful peripheral neuropathy; conditions: rat model of painful peripheral neuropathy; cited from earlier work
[3] = Stability of oxazinane-dione at relevant pH; format: physicochemical
Excerpt: It is anticipated, therefore, that the oxazinane-dione 9 is responsible for some aspects of felbamate's efficacy in vivo. As patients undergoing felbamate therapy for seizure control ingest large quantities of felbamate (grams per day), even a 1-2% conversion to a pharmacologically active metabolite could have significant effects. […] In light of the possibility that the oxazinane-dione 9 could be a metabolic precursor to the major human metabolite, acid carbamate 4, it may be formed in significant quantities (the acid carbamate was reported to represent ˜ 12% of a dose). […] Also included in this class are cyclic congeners 21 and 22, which may be formed from felbamate derivatives (see scheme II). Also included is 20, which may be an unknown metabolite of felbamate 1 and could be produced from felbamate derivative 12 by the cytochrome P450 metabolism.

amount of felbamate excreted per mL of urine [1]	stability [3]	SMILES	effect on measures of pain (in words) [2]
10,064±515 nMoles/mL		NC(=O)OCC(COC(N)=O)c1ccccc1 [felbamate, 2-phenyl-1,3-propanediol dicarbamate]	significant reductions in all measures of pain
	unstable	O=C1NC(=O)C(c2ccccc2)CO1 (stereo not drawn) [oxazinane-dione 9]	

Source: US20030166648A1, “Felbamate derived compounds” (priority 2002, published 2003)
